Laboratory results published in ChEMBL document CHEMBL3632618, “The isolation and synthesis of a novel benzofuran compound from Tephrosia purpurea, and the synthesis of several related derivatives, which suppress histamine H1 receptor gene expression” (Bioorg Med Chem, 2015).

Test system: HeLa; call rule not given here
Assay: Downregulation of PMA-induced H1R mRNA expressed in human HeLa cells incubated for 1 hr prior to PMA stimulation by RT-PCR method
Assay type: functional, cell-based
[1] = Homo sapiens, HeLa, read-out: IC50

Row | Structure (SMILES) | IC50 [1] | IC50 (hela) | IC50 (hela, read-out: IC50)
1 | COc1cc2occc2cc1C(N)=O | 49.1 µM | – | –
2 | COc1cc2occc2cc1C(=O)O | – | Not Active | –
3 | COc1c(C(=O)O)ccc2occc12 | – | Not Active | –
4 | COc1c(C(N)=O)ccc2occc12 | 75.3 µM | – | 83.7 µM
5 | NC(=O)c1ccc2occc2c1O | – | Not Active | –
6 | NC(=O)c1cc2ccoc2cc1O | 84.6 µM | – | –
